{"source": "paper PMC3429785", "about": "(Bioconjugate chemistry, 2012)", "key": {"[1]": {"tested_on": "HXB2 luciferase reporter pseudovirions (HOS-CD4-CXCR4 target cells)", "assay": "Pseudovirion infectivity assay, HXB2", "format": "cell-based, HIV-1", "conditions": "HXB2 strain"}, "[2]": {"tested_on": "JRFL luciferase reporter pseudovirions (HOS-CD4-CCR5 target cells)", "assay": "Pseudovirion infectivity assay, JRFL", "format": "cell-based, HIV-1", "conditions": "JRFL strain"}}}
{"substance": "C34-PEG11-Chol: C-peptide (C34) cholesterol conjugate with PEG11 linker", "values": [{"measurement": "additional fold improvement in potency over short PEG2 linker", "setting": "[1]", "value": 2, "unit": "fold"}]}
{"substance": "C34-PEG2-Chol: C-peptide (C34) cholesterol conjugate with short PEG2 linker [reference compound]", "values": [{"measurement": "fold improved potency of cholesterol conjugate compared to C34", "setting": "[1]", "value": "~ 40 fold"}]}
{"substance": "C34-PEG80-Chol: C-peptide (C34) cholesterol conjugate with PEG80 linker", "values": [{"measurement": "fold worse than the optimal PEG length", "setting": "[2]", "value": 4, "unit": "fold"}]}
